PMC4350332 (Oncotarget, 2014)
Where two headings read alike, the source gives them in different places.

Experiments:
[1] = system: PDC activity in PC-3 cells; test: Cellular PDC activity assay, PC-3; type: cell-based; settings: magnitude greater for VER-246608
Procedure: Cellular PDC activity was determined using a commercial assay kit (Abcam) as per the manufacturer's instructions. Briefly, PC-3 and K562 cell suspensions at a density of 1×10^6 and 1.5×10^6, respectively, were transferred to 96 well plates (250 μL per well). Cells were pre-treated with compound or DMSO for 1 h in a CO2incubator at 37°C followed by cell lysis in 250 μL of a 9:1 dilution of assay kit detergent (containing 20 mM NaF and 40 μM of the PDK inhibitor VER-246550) for 10 min on ice. The cellular debris was then pelleted at 1000g for 10 min. A 200 μL aliquot of each lysate was then transferred to the immunocapture microplate. PDC reaction rates were determined from the slope of the reaction curves and expressed as a percentage of the vehicle (DMSO) control values.

PDK-4 = target: T1, PDK-4 (Homo sapiens, UniProt Q16654); test: DELFIA-based enzyme functional assay (E1 substrate), PDK-4; type: biochemical; settings: data not shown
T1 construct: PDK-4: residues 1-412; made in house; host or cells: E. coli BL21

PDK-1 [2] = target: T2, PDK-1 (Homo sapiens, UniProt Q15118); settings: read-out: In vitro functional (E1/E2), IC50, PDK-1; E1/E2 as the substrate
Procedure: DELFIA assay reagents (assay buffer, wash buffer, enhancement solution and anti-rabbit IgG-Eu-N1 secondary antibody) and plates were obtained from Perkin Elmer (MD, USA). Test compounds were subjected to a 10 point tripling dilution in DMSO, diluted in MOPS buffer (60mM MOPS pH7.2, 15 mM Magnesium acetate, 60 mM KCl) and added to the enzyme mix (10 nM PDK-1, 2 and 3 or 20 nM PDK-4, 300nM E1, 0.1 mg/mL BSA, 1 mM DTT) in 96-well V-bottom plates (Greiner). The reaction was initiated by the addition of ATP to a final concentration of 5 μM followed by a 1 h incubation at 30°C. The reaction was then stopped by the addition of STOP solution (50 mM Carbonate-Bicarbonate Buffer, pH 9.6), and then transferred to 96 well DEFLIA yellow plates. The plates were then sealed and incubated o/n at 4°C. Detection and quantification of p(Ser^293)E1α levels was then achieved through incubation with anti-p(Ser^293)E1α primary antibody (Genescript) followed by anti-rabbit secondary IgG-Eu-N1 antibody and addition of enhancement solution as per the manufacturer's instructions. The time-resolved fluorescent signal was then measured using a Victor2 plate reader (Perkin Elmer). The data was fitted by non-linear regression using XLFIT4 within a custom ABASE (IDBS) protocol in order to determine IC50 values.

PDK-3 = target: T3, PDK-3 (Homo sapiens, UniProt Q15120); test: DELFIA-based enzyme functional assay (E1 substrate), PDK-3; type: biochemical; settings: data not shown
T3 construct: PDK-3: residues 9-406; made in house; host or cells: E. coli BL21

PDK-1 [3] = target: T2, PDK-1; test: PDK-1 fluorescence polarization assay (fluorescein-labelled ATP site probe); type: binding; parameters: PDK-1: residues 30-436; made in house; host or cells: E. coli BL21; settings: fluorescence polarization; mean of n determinations; read-out: PDK-1 FP, IC50
Procedure: carbamoyl]-2-(6-hydroxy-3-oxo-3H-xanthen-9-yl)benzoic acid), which binds to the ATP site of PDK resulting in an increase in anisotropy.
The HSP-90ß FP assay was conducted as previously described.

[4] = system: p(Ser^293)E1α levels in ES-2 cells; test: Phospho(Ser293) E1α suppression in ES-2 cells; type: cell-based
Procedure: (§1) Phospho(Ser^293) E1α MSD ELISA assay: All reagents were purchased from Meso Scale Discovery (Maryland, USA) unless otherwise stated. Following compound treatment, cells were treated with lysis buffer (TBS pH 7.4, 1% Tween-20, 1 mM EGTA, 1 mM EDTA, 1 mM NaF, protease and phosphatase inhibitor cocktails (Roche)) on ice and the lysates added to standard bind 96 well MSD plates which were pre-loaded with custom phospho(Ser^293)E1α ‘capture’ antibody (2 μg/ml in TBST containing 3% (w/v) blocker A) (Genescript) and blocked with 3% (w/v) blocker A, followed by a 1 h incubation at RT. The wells were then washed 3X with TBST (0.05% tween 20) followed by the addition of 2 μg/ml E1α ‘detection’ antibody (2 μg/ml) (Abcam) and a further 1 h incubation at RT. The wells were again washed 3X with TBST followed by the addition of 1 μg/ml Goat anti-mouse Sulfotag antibody, and a further TBST wash prior to the addition of 2X read buffer T. The chemiluminescent signal was then measured on a MSD sector imager 2400.

PC-3 cells [5] = test: Oxygen consumption (oxytherm oxygen electrode); type: cell-based
Procedure: Oxygen consumption was measured using an ‘oxytherm’ oxygen electrode system (Hansatech). PC-3 cells were trypsinized and re-suspended to a density of 1.7×10^6cells/mL in RPMI-1640 media containing 10% FCS. Compounds or DMSO were then added to 1.5 mL aliquots of this suspension to yield the required final concentration followed by a 1 h incubation period in a CO2incubator at 37°C. The compound/vehicle treated cells were then transferred to the oxygen electrode chamber (pre-equilibrated to 37°C). Oxygen consumption was measured over a 30 minute period and the rate of oxygen consumption determined by plotting oxygen concentration against time and obtaining the slope of the line using the linear fit function within excel.

[6] = system: p(Ser^293)E1α levels in PC-3 cells; test: Phospho(Ser293) E1α MSD ELISA in PC-3 cells; type: cell-based; settings: for Degree of suppression of p(Ser^293)E1α levels (plateau), reduction compared to DMSO control: MSD ELISA; for IC50: Homo sapiens, PD marker (ELISA)
Procedure: as §1

PC-3 cells [7] = test: Cell cycle and sub-G1 analysis (PI/FACS); type: cell-based; settings: PC-3, 20 μM, 48 h
Procedure: PC-3 cells were seeded into 6-well plates at a density of 1×10^5 cells per well. […] Following ethanol fixation and treatment with RNAse (Sigma), cellular DNA was stained with propidium iodide (50 μg/mL). The samples were then acquired on a FACSArray (BD Biosciences) flow cytometer and the data analyzed using FACSDiva software.

[8] = system: PC-3, SW-1088, UM-22B and MEF cell lines; test: Sulforhodamine B cytotoxicity, cell line set; type: cell-based
Procedure: Compound cytotoxicity was determined using the Sulforhodamine B assay for cells cultured as a monolayer as described previously (45). For spheroid growth experiments, PC-3 cells were seeded (500 cells/well) into 96 well round bottom plates (Corning Costar 7007) in RPMI-1640 media containing 2.5% (w/v) Matrigel (BD Biosciences). […] Spheroid volumes were determined by obtaining diameter measurements from images taken on a Zeiss Axiovert 200M inverted microscope using the axiovision software.

[9] = system: PC-3, K562, Jurkat and MDA-MD-453 cell lines; test: Growth in D-glucose or D-galactose media (Sulforhodamine B); type: cell-based; settings: 20 μM, 96 h
Procedure: transformed and additional cancer cell lines. A, The indicated cell lines were seeded into
relevant media containing either 2 g/L D-glucose or D-galactose for 96 h. Cell mass was determined using the sulforhodamine B assay. Results are expressed as the percentage change vs DMSO control values for cells incubated in D-glucose containing media.
Experiments were performed in triplicate (A & C) or quadruplicate (B). Error bars represent standard deviation of the mean (*, P < 0.01).

panel of 97 kinases = test: scanEDGE kinase selectivity screen (DiscoverX); type: binding; settings: 10 μM
Text: A proprietary active site-directed competition binding assay was employed to quantitatively measure interactions between test compounds and the individual kinases on the panel. Results were expressed as a percentage of control binding, with 0% indicating complete binding of the test compound.

PC-3 cells [10] = test: Combination index analysis and potentiation with β-Chloro-alanine; type: cell-based; settings: 20 μM VER-246608
Procedure: (§2) The cells were then incubated for 120 h followed by cell mass determination using the Sulforhodamine B assay. […] Drug interactions were analyzed by the combination index (CI) method based on the method described by Chou. CI values <0.9 indicates synergism, 0.9 to 1.1 additivity, and >1.1 antagonism. The data was expressed in the form of Fa-CI simulation plot generated using calcusyn software (Biosoft). Potentiation assays were carried out as described previously.

Jurkat cells = test: 13C-NMR metabolite analysis in Jurkat cells; type: cell-based; settings: 20 μM
Procedure: Jurkat cells (5 X 106) were pre-treated in RPMI-1640 media containing either DMSO or 20
μM VER-00246608 for 1 h. The cells were then pelleted and washed in PBS containing
DMSO/compound and re-suspended in glucose-free RPMI-1640 media containing 10% FCS
cell suspension was then transferred to a 5mm NMR tube and placed into the sample probe of
a Bruker DRX600 NMR spectrometer. The probe was pre-equilibrated to 37°C and shimmed
on a matched sample. Pulses were also calibrated on the matched sample. The sample
containing the Jurkat cells was rapidly shimmed and data acquisition initiated within 15
1D 13C NMR spectra (240ppm sweep width, 64k acquired points, 64 scans) were then
acquired at 10 minute intervals up to 2 h. The glucose and lactate peaks were converted to
concentrations by referencing to a cell-free reference sample containing the same
concentration of 1,6-13C-D-Glucose (11 mM).
D, Jurkat cells (5 X 106) were pre-treated in RPMI-
suspension in glucose-free RPMI-1640 media supplemented with 2 g/L 1,6-13C-D-Glucose followed by kinetic acquisition of 13C-NMR spectra at 10 min intervals. Representative curves from duplicate treatments are shown.

PC-3 cells [11] = test: Potentiation assay with cancer therapeutic agents, PC-3; type: cell-based
Procedure: as §2

T2 sequence (Q15118 30-436): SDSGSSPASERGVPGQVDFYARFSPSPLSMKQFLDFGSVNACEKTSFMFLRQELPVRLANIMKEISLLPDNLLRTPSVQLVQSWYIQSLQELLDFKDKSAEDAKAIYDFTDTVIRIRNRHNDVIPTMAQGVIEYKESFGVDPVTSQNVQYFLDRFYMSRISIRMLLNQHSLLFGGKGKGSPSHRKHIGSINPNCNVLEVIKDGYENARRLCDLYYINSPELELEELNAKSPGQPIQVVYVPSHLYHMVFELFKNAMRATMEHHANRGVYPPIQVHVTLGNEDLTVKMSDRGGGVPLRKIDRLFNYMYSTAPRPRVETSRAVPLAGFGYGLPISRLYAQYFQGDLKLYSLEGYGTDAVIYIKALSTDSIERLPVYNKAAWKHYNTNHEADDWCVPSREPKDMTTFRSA
T1 sequence (Q16654 whole entry, the tested form may be a part): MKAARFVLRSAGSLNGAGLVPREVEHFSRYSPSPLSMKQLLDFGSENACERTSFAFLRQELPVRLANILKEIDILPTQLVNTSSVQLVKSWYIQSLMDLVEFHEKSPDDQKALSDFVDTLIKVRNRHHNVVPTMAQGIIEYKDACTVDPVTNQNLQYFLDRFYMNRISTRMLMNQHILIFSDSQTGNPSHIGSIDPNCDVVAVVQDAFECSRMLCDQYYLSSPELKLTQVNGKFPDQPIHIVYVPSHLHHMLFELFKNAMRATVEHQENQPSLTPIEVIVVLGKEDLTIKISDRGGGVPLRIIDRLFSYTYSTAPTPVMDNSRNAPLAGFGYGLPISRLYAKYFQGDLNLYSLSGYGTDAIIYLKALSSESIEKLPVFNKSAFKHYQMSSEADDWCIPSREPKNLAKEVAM
T3 sequence (Q15120 9-406): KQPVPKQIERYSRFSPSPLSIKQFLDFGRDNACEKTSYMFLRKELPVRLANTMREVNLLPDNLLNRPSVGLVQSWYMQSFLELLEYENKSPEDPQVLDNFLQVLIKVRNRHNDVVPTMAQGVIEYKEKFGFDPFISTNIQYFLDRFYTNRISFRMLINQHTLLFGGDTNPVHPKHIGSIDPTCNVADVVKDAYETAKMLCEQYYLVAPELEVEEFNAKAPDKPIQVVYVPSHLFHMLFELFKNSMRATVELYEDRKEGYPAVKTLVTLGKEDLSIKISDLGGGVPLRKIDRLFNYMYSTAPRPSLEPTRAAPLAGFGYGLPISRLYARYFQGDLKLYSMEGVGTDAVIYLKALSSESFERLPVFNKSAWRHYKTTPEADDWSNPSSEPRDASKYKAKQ

## C[C@@H]1CN(C(=O)[C@](C)(O)C(F)(F)F)[C@@H](C)CN1C(=O)c1ccc(C#N)cc1 [Nov3r, reference compound]
[1]
  Increase in PDC activity: an increase in PDC activity
PDK-4
  Stimulation of PDK-4 activity: approximately 2 fold
PDK-1 [2]
  IC50: 3 nM
PDK-3
  Stimulation of PDK-3 activity: approximately 2 fold
PDK-1 [3]
  IC50: 83 nM
[4]
  Sub-maximal suppression of p(Ser^293)E1α levels: 80%
PC-3 cells [5]; concentrations ≥ 1μM (3 μM in Fig. 3B)
  Effect on oxygen consumption rate: no discernible effect
[6]; PC-3 cells
  Degree of suppression of p(Ser^293)E1α levels (plateau), reduction compared to DMSO control: approximately 60%

## Cc1cnc(Cl)nc1-c1ccc(N(Cc2ccc(CNC(=O)C(F)F)cc2)C(=O)c2ccc(O)cc2O)cc1 [VER-246608]
PC-3 cells [7]; serum-starved conditions
  Cell cycle distribution: increased fraction of cells in the G1 phase
PC-3 cells [7]; standard and serum-depleted conditions
  Apoptosis induction (sub-G1 fraction): No evidence of apoptosis induction
[1]
  Increase in PDC activity: an increase in PDC activity
[8]; 0.1% O2
  Compound potency under hypoxic conditions: no evidence of augmented compound potency
[8]; Sulforhodamine B assay, standard media
  Cytotoxicity (reduced cell mass) in standard culture: weakly cytotoxic
[9]
  Effect on growth in D-glucose or D-galactose containing media: little to no effect
Panel of 97 kinases
  Number of further kinases with ligand binding between 10 and 35% of control: seven
  Number of kinases with ligand binding reduced to ≤ 10% of control values: one
Panel of 97 kinases; ligand binding reduced to ≤35% of control
  Kinases on the panel with significant or partial binding: 8%
PC-3 cells [10]
  Potentiation factor for β-Chloro-alanine: 1.8 ± 0.06
Jurkat cells
  Decrease in the rate of D-glucose consumption: 23%
  Decrease in the rate of L-lactate production: 25%
PC-3 cells [5]; 20 μM, 1 h pre-treatment
  Increase in the rate of oxygen consumption: 66%
[6]; PC-3, read-out: p(Ser^293)E1α (10% FCS), IC50, 10% FCS
  IC50: 1450 nM
[6]; PC-3 cells, 0% FCS, read-out: p(Ser^293)E1α (0% FCS), IC50
  IC50: 266 nM
[6]; PC-3, 10 and 20 μM, 24 h, D-glucose/L-glutamine-depleted media
  Reduction in p(Ser^293)E1α levels: > 70%
[6]; PC-3 cells
  Degree of suppression of p(Ser^293)E1α levels (plateau), reduction compared to DMSO control: complete suppression
PC-3 cells [11]
  Potentiation of the remaining three agents (BEZ235, Cisplatin and 3-Bromopyruvate): No evidence of potentiation
PC-3 cells [11]; PC-3 cells
  Potentiation of doxorubicin: 2 fold
